Results taken from PubChem BioAssay (NCI).
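Cells were grown in 96-well plates and exposed to each compound for 48 hours at five concentrations; endpoints were interpolated linearly between bracketing concentrations, or set to the highest concentration if not reached. TGI is the concentration that stops growth completely.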

What was measured:
Assay in all cases: NCI tumour cell line growth inhibition, 48 h
ACHN renal = test system: ACHN renal
LOX IMVI melanoma = test system: LOX IMVI melanoma
MOLT-4 leukemia = test system: MOLT-4 leukemia
NCI-H522 lung = test system: NCI-H522 lung
OVCAR-5 ovarian = test system: OVCAR-5 ovarian
RPMI-8226 leukemia = test system: RPMI-8226 leukemia
SF-268 CNS = test system: SF-268 CNS
SF-539 CNS = test system: SF-539 CNS
U251 CNS = test system: U251 CNS
UACC-257 melanoma = test system: UACC-257 melanoma
RXF 393 renal = test system: RXF 393 renal
SK-OV-3 ovarian = test system: SK-OV-3 ovarian
MDA-MB-435 = test system: MDA-MB-435

## COc1ccc2c(c1)CCC(OS(=O)(=O)CC13CCC(CC1=O)C3(C)C)C2=O (stereo unspecified)
ACHN renal
  TGI: > 100 µM
LOX IMVI melanoma
  TGI: 32.1 µM
MOLT-4 leukemia
  TGI: 55.9 µM
NCI-H522 lung
  TGI: 53.7 µM
OVCAR-5 ovarian
  TGI: > 100 µM
RPMI-8226 leukemia
  TGI: 57.2 µM
SF-268 CNS
  TGI: 59.8 µM
SF-539 CNS
  TGI: 41.6 µM
U251 CNS
  TGI: 43.1 µM
UACC-257 melanoma
  TGI: > 100 µM

## CC(CCCOC(c1ccccc1)(c1ccccc1)c1ccccc1)OC(=O)Nc1ccccc1 (stereo unspecified)
ACHN renal
  TGI: 26.5 µM
LOX IMVI melanoma
  TGI: 25.3 µM
MOLT-4 leukemia
  TGI: 24 µM
NCI-H522 lung
  TGI: 23.9 µM
OVCAR-5 ovarian
  TGI: 26.8 µM
RPMI-8226 leukemia
  TGI: 42.1 µM
RXF 393 renal
  TGI: 26.5 µM
SF-268 CNS
  TGI: 25.9 µM
SF-539 CNS
  TGI: 31.7 µM
SK-OV-3 ovarian
  TGI: 27.2 µM
U251 CNS
  TGI: 26.8 µM
UACC-257 melanoma
  TGI: 28.8 µM

## CC1(C)O[C@@H](CBr)C[C@H](C[C@H]2C[C@@H](O)C[C@@H](CCOCc3ccccc3)O2)O1
ACHN renal
  TGI: 57.4 µM
LOX IMVI melanoma
  TGI: 71.8 µM
MDA-MB-435
  TGI: 55.6 µM
MOLT-4 leukemia
  TGI: > 100 µM
NCI-H522 lung
  TGI: 35.4 µM
OVCAR-5 ovarian
  TGI: 38.4 µM
RPMI-8226 leukemia
  TGI: 97 µM
SF-268 CNS
  TGI: 39.2 µM
SK-OV-3 ovarian
  TGI: 33.7 µM
U251 CNS
  TGI: > 100 µM
UACC-257 melanoma
  TGI: 37.8 µM

## CC1=C(C(=O)Nc2ccc([N+](=O)[O-])cc2)C(c2ccccc2F)C(C(=O)Nc2ccc([N+](=O)[O-])cc2)=C(C)N1
ACHN renal
  TGI: 39.8 µM
LOX IMVI melanoma
  TGI: 31.3 µM
MOLT-4 leukemia
  TGI: 27.4 µM
NCI-H522 lung
  TGI: 35 µM
OVCAR-5 ovarian
  TGI: > 100 µM
RPMI-8226 leukemia
  TGI: 27.5 µM
RXF 393 renal
  TGI: 79.2 µM
SF-268 CNS
  TGI: > 100 µM
SF-539 CNS
  TGI: > 100 µM
SK-OV-3 ovarian
  TGI: 79.7 µM
U251 CNS
  TGI: 76.6 µM
UACC-257 melanoma
  TGI: 48.7 µM

## CCC(=O)N/N=C(\C=C\c1cccc(O)c1)c1sc(Nc2ccc(C)cc2[N+](=O)[O-])nc1C
ACHN renal
  TGI: > 100 µM
LOX IMVI melanoma
  TGI: > 100 µM
MOLT-4 leukemia
  TGI: > 100 µM
NCI-H522 lung
  TGI: > 100 µM
OVCAR-5 ovarian
  TGI: > 100 µM
RPMI-8226 leukemia
  TGI: > 100 µM
RXF 393 renal
  TGI: > 100 µM
SF-268 CNS
  TGI: > 100 µM
SF-539 CNS
  TGI: > 100 µM
SK-OV-3 ovarian
  TGI: > 100 µM
U251 CNS
  TGI: > 100 µM
UACC-257 melanoma
  TGI: > 100 µM

## Cc1ccc(NC(=O)C(=O)Cc2cc[n+]([O-])cc2)cc1
ACHN renal
  TGI: > 100 µM
LOX IMVI melanoma
  TGI: > 100 µM
MOLT-4 leukemia
  TGI: > 100 µM
NCI-H522 lung
  TGI: > 100 µM
OVCAR-5 ovarian
  TGI: > 100 µM
RPMI-8226 leukemia
  TGI: > 100 µM
RXF 393 renal
  TGI: > 100 µM
SF-268 CNS
  TGI: > 100 µM
SF-539 CNS
  TGI: > 100 µM
SK-OV-3 ovarian
  TGI: > 100 µM
U251 CNS
  TGI: > 100 µM
UACC-257 melanoma
  TGI: > 100 µM

## CCOC(=O)C1=C(Nc2ccc(Cl)c(Cl)c2)OC/C1=N\NS(=O)(=O)c1ccc(C)cc1
LOX IMVI melanoma
  TGI: > 100 µM
MOLT-4 leukemia
  TGI: > 100 µM
NCI-H522 lung
  TGI: 74.8 µM
OVCAR-5 ovarian
  TGI: > 100 µM
RPMI-8226 leukemia
  TGI: 64.9 µM
RXF 393 renal
  TGI: > 100 µM
SF-268 CNS
  TGI: > 100 µM
SF-539 CNS
  TGI: > 100 µM
SK-OV-3 ovarian
  TGI: > 100 µM
U251 CNS
  TGI: > 100 µM
UACC-257 melanoma
  TGI: 61.7 µM

## CC(=O)C1=CCC2c3[nH]c4ccccc4c3CCN2C1 (stereo unspecified)
ACHN renal
  TGI: > 100 µM
LOX IMVI melanoma
  TGI: > 100 µM
MOLT-4 leukemia
  TGI: > 100 µM
NCI-H522 lung
  TGI: 65.6 µM
OVCAR-5 ovarian
  TGI: > 100 µM
RXF 393 renal
  TGI: > 100 µM
SF-268 CNS
  TGI: > 100 µM
SF-539 CNS
  TGI: > 100 µM
SK-OV-3 ovarian
  TGI: 75.6 µM
U251 CNS
  TGI: > 100 µM
UACC-257 melanoma
  TGI: > 100 µM

## O=C1c2ccccc2-c2c1c(-c1cccc(Br)c1)nc1ccc3ccccc3c21
ACHN renal
  TGI: > 100 µM
LOX IMVI melanoma
  TGI: > 100 µM
MDA-MB-435
  TGI: > 100 µM
MOLT-4 leukemia
  TGI: > 100 µM
OVCAR-5 ovarian
  TGI: > 100 µM
RPMI-8226 leukemia
  TGI: > 100 µM
RXF 393 renal
  TGI: > 100 µM
SF-268 CNS
  TGI: > 100 µM
SF-539 CNS
  TGI: > 100 µM
SK-OV-3 ovarian
  TGI: > 100 µM
U251 CNS
  TGI: > 100 µM
UACC-257 melanoma
  TGI: > 100 µM

## CCC1CN2CCC3(c4ccccc4)CC(C(=O)OC)=CC1C23 (stereo unspecified)
ACHN renal
  TGI: 30.4 µM
LOX IMVI melanoma
  TGI: 28.3 µM
MOLT-4 leukemia
  TGI: > 100 µM
NCI-H522 lung
  TGI: 27.2 µM
OVCAR-5 ovarian
  TGI: 20.6 µM
RPMI-8226 leukemia
  TGI: > 100 µM
RXF 393 renal
  TGI: 33.6 µM
SF-268 CNS
  TGI: 27.7 µM
SF-539 CNS
  TGI: 31.3 µM
SK-OV-3 ovarian
  TGI: 26.5 µM
U251 CNS
  TGI: 30 µM
UACC-257 melanoma
  TGI: 32 µM

## CC(=O)ON(C(C)=O)c1ccc(-c2nc3ccccc3s2)cc1C
ACHN renal
  TGI: > 100 µM
LOX IMVI melanoma
  TGI: > 100 µM
MDA-MB-435
  TGI: > 100 µM
MOLT-4 leukemia
  TGI: > 100 µM
NCI-H522 lung
  TGI: > 100 µM
OVCAR-5 ovarian
  TGI: 55.2 µM
RPMI-8226 leukemia
  TGI: > 100 µM
SF-268 CNS
  TGI: > 100 µM
SF-539 CNS
  TGI: > 100 µM
U251 CNS
  TGI: > 100 µM
UACC-257 melanoma
  TGI: > 100 µM

## O=C(Nc1ccn(CCI)c(=O)n1)c1ccccc1
ACHN renal
  TGI: > 100 µM
LOX IMVI melanoma
  TGI: > 100 µM
NCI-H522 lung
  TGI: > 100 µM
OVCAR-5 ovarian
  TGI: > 100 µM
RPMI-8226 leukemia
  TGI: > 100 µM
RXF 393 renal
  TGI: > 100 µM
SF-268 CNS
  TGI: > 100 µM
SF-539 CNS
  TGI: > 100 µM
SK-OV-3 ovarian
  TGI: > 100 µM
U251 CNS
  TGI: > 100 µM
UACC-257 melanoma
  TGI: > 100 µM

## O=C(CC1C(=O)c2ccccc2C1=C1C(=O)c2ccccc2C1=O)c1ccccc1 (stereo unspecified)
ACHN renal
  TGI: > 100 µM
LOX IMVI melanoma
  TGI: > 100 µM
MOLT-4 leukemia
  TGI: > 100 µM
NCI-H522 lung
  TGI: 97.3 µM
OVCAR-5 ovarian
  TGI: > 100 µM
RPMI-8226 leukemia
  TGI: > 100 µM
RXF 393 renal
  TGI: > 100 µM
SF-268 CNS
  TGI: > 100 µM
SF-539 CNS
  TGI: > 100 µM
SK-OV-3 ovarian
  TGI: > 100 µM
U251 CNS
  TGI: > 100 µM
UACC-257 melanoma
  TGI: > 100 µM

## Cc1nc2c(=O)n3c4c(cccc4c2o1)CCC3
ACHN renal
  TGI: > 100 µM
LOX IMVI melanoma
  TGI: > 100 µM
MDA-MB-435
  TGI: > 100 µM
MOLT-4 leukemia
  TGI: > 100 µM
OVCAR-5 ovarian
  TGI: > 100 µM
RPMI-8226 leukemia
  TGI: > 100 µM
RXF 393 renal
  TGI: > 100 µM
SF-268 CNS
  TGI: > 100 µM
SF-539 CNS
  TGI: > 100 µM
SK-OV-3 ovarian
  TGI: > 100 µM
U251 CNS
  TGI: > 100 µM
UACC-257 melanoma
  TGI: > 100 µM
